Results as given in article PMC10660610 (Scientific Reports, 2023).

Assays:
Format in all cases: binding
[1] = target: T1, KOR (kappa-opioid receptor) (Cavia porcellus, UniProt P41144); conditions: 50 mM Tris-HCl pH 7.4, 25 °C, 30 min; read-out: KOR^b / Ki ± S.E.M.
T1 construct: gene OPRK1; native full-length receptor in guinea pig brain membrane homogenate
From the text: [3H]HS665 displacement, guinea pig brain membranes on KOR (kappa-opioid receptor)

MOR (mu-opioid receptor) = target: T2, MOR (mu-opioid receptor) (Rattus norvegicus, UniProt P33535); conditions: 50 mM Tris-HCl pH 7.4, 35 °C, 45 min; read-out: MOR^a / Ki ± S.E.M.
T2 construct: gene Oprm1; native full-length receptor in rat brain membrane homogenate

[2] = target: T3, DOR (delta-opioid receptor) (Rattus norvegicus, UniProt P33533); conditions: 50 mM Tris-HCl pH 7.4, 35 °C, 45 min; read-out: DOR^a / Ki ± S.E.M.
T3 construct: gene Oprd1; native full-length receptor in rat brain membrane homogenate
T3 sequence (P33533 whole entry): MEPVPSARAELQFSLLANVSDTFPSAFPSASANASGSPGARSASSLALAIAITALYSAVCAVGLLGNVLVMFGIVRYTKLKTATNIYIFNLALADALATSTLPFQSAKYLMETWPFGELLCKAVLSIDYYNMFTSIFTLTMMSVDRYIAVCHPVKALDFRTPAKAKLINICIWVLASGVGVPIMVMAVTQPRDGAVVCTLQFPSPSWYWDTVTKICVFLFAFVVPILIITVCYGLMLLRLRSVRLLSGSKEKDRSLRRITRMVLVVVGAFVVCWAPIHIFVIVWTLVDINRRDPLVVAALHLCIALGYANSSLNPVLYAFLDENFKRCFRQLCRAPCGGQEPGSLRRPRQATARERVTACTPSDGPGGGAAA

T2 sequence (P33535 whole entry): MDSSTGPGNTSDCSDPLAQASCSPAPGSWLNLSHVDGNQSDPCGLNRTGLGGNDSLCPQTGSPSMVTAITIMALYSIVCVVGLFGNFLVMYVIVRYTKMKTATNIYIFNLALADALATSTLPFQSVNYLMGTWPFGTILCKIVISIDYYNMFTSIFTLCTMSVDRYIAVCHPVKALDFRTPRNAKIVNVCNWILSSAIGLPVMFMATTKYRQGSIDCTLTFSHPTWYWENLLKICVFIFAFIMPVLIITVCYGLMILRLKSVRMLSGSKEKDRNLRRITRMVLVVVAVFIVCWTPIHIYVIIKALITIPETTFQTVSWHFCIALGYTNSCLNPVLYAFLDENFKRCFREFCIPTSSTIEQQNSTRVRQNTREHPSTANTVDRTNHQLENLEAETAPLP
T1 sequence (P41144 whole entry): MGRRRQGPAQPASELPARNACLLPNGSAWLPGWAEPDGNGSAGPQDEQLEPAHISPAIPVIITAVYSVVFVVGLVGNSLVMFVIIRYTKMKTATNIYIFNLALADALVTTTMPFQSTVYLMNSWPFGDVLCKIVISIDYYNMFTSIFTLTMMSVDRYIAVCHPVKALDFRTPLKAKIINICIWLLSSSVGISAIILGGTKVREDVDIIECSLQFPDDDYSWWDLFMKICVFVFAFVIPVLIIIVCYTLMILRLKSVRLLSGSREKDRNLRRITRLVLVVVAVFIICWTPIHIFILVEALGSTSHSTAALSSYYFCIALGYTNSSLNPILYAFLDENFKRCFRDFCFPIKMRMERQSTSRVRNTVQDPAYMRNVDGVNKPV

Compound `Oc1ccc2c3c1O[C@H]1[C@@H](O)C=C[C@H]4[C@@H](C2)N(CCN2CCOCC2)CC[C@@]341` [9a] has a Ki [1] of 20.3 ± 4.2 nM, a Ki (MOR (mu-opioid receptor)) of 389 ± 17 nM and a Ki [2] of 25.3 ± 1.5 nM.
Work on `Oc1ccc2c3c1O[C@H]1[C@@H](O)C=C[C@H]4[C@@H](C2)N(CCN2CCCCC2)CC[C@@]341` [9b] yielded a Ki [1] of 138 ± 42.3 nM, a Ki (MOR (mu-opioid receptor)) of 436 ± 18.8 nM and a Ki [2] of 44.9 ± 7.2 nM.
Work on `Oc1ccc2c3c1O[C@H]1[C@@H](O)C=C[C@H]4[C@@H](C2)N(CCN2CCCC2)CC[C@@]341` [9c] yielded a Ki [1] of 6.9 ± 4.6 nM, a Ki (MOR (mu-opioid receptor)) of 62.3 ± 2.6 nM and a Ki [2] of 34.1 ± 7.1 nM.
With `O=C(CN1CC[C@]23c4c5ccc(O)c4O[C@H]2[C@@H](O)C=C[C@H]3[C@H]1C5)N1CCOCC1` [10a] the Ki [1] was 3.6 ± 1.9 nM and the Ki (MOR (mu-opioid receptor)) was 394 ± 186 nM.
`O=C(CN1CC[C@]23c4c5ccc(O)c4O[C@H]2[C@@H](O)C=C[C@H]3[C@H]1C5)N1CCCCC1` [10b] was tested, and the Ki (MOR (mu-opioid receptor)) was 1500 ± 664 nM and the Ki [2] was > 10000 nM.
With `O=C(CN1CC[C@]23c4c5ccc(O)c4O[C@H]2[C@@H](O)C=C[C@H]3[C@H]1C5)N1CCCC1` [10c] the Ki [1] was 10.7 ± 7.7 nM, the Ki (MOR (mu-opioid receptor)) was 521 ± 218 nM and the Ki [2] was 839 ± 99.9 nM.
Compound `O=C1CC[C@@]2(O)[C@H]3Cc4ccc(O)c5c4[C@@]2(CCN3CC(=O)N2CCOCC2)[C@H]1O5` [12a] has a Ki (MOR (mu-opioid receptor)) of 684 ± 32.7 nM and a Ki [2] of 125 ± 39.6 nM.
`O=C1CC[C@@]2(O)[C@H]3Cc4ccc(O)c5c4[C@@]2(CCN3CC(=O)N2CCCCC2)[C@H]1O5` [12b] gave a Ki (MOR (mu-opioid receptor)) of 1490 ± 612 nM and a Ki [2] of 1140 ± 532 nM.
